ChEMBL document CHEMBL4229455, “Synthesis and anticancer activity of novel bisindolylhydroxymaleimide derivatives with potent GSK-3 kinase inhibition” (Bioorg Med Chem, 2018)

How the values were obtained:
[1] = tested on: MCF7; test: Cytotoxicity against human MCF7 cells assessed as cell growth at 10 uM after 48 hrs by SRB assay relative to control; type: functional; details: MCF7, 48 h, read-out: Activity
[2] = tested on: HCT-15; test: Cytotoxicity against human HCT15 cells assessed as cell growth at 10 uM after 48 hrs by SRB assay relative to control; type: functional; details: HCT-15, 48 h, read-out: Activity
[3] = molecular target: Aurora kinase B (Homo sapiens, UniProt Q96GD4); test: Inhibition of recombinant full length human aurora B expressed in baculovirus infected Sf9 insect cells using MBP as substrate in presence of [gamma-33P]ATP
[4] = tested on: HOP-92; test: Cytotoxicity against human HOP92 cells assessed as cell growth at 10 uM after 48 hrs by SRB assay relative to control; type: functional; details: HOP-92, 48 h, read-out: Activity
[5] = tested on: MDA-MB-435; test: Cytotoxicity against human MDA-MB-435 cells assessed as cell growth at 10 uM after 48 hrs by SRB assay relative to control; type: functional; details: MDA-MB-435, 48 h, read-out: Activity
[6] = tested on: CAKI-1; test: Cytotoxicity against human Caki1 cells assessed as cell growth at 10 uM after 48 hrs by SRB assay relative to control; type: functional; details: CAKI-1, 48 h, read-out: Activity
[7] = tested on: UO-31; test: Cytotoxicity against human UO31 cells assessed as cell growth at 10 uM after 48 hrs by SRB assay relative to control; type: functional; details: UO-31, 48 h, read-out: Activity
[8] = tested on: SF-268; test: Cytotoxicity against human SF268 cells assessed as cell growth at 10 uM after 48 hrs by SRB assay relative to control; type: functional; details: SF-268, 48 h, read-out: Activity
[9] = tested on: 786-0; test: Cytotoxicity against human 786-O cells assessed as cell growth at 10 uM after 48 hrs by SRB assay relative to control; type: functional; details: 786-0, 48 h, read-out: Activity
[10] = tested on: LOX IMVI; test: Cytotoxicity against human LOXIMVI cells assessed as cell growth at 10 uM after 48 hrs by SRB assay relative to control; type: functional; details: read-out: Activity
[11] = molecular target: Dual specificity tyrosine-phosphorylation-regulated kinase 1A (Rattus norvegicus) (UniProt Q63470); test: Inhibition of recombinant rat DYRK1A kinase domain expressed in bacteria assessed as residual activity at 10 uM using KKISGRLSPIMTEQ as substrate in presence of [gamma-33P]ATP
[12] = molecular target: CDK2/Cyclin A2 (Homo sapiens, UniProt P24941); test: Inhibition of full length human CDK2/cyclin A using histone H1 as substrate in presence of [gamma-33P]ATP; type: protein-complex assay
[13] = molecular target: CDK2/Cyclin A2 (Homo sapiens) (UniProt P24941+P20248); test: Inhibition of full length human CDK2/cyclin A assessed as residual activity at 10 uM using histone H1 as substrate in presence of [gamma-33P]ATP; type: protein-complex assay
[14] = tested on: T47D; test: Cytotoxicity against human T47D cells assessed as cell growth at 10 uM after 48 hrs by SRB assay relative to control; type: functional; details: read-out: Activity
[15] = molecular target: Serine/threonine-protein kinase pim-1 (Homo sapiens, UniProt P11309); test: Inhibition of recombinant full length human PIM1 expressed in bacteria using histone H1 as substrate in presence of [gamma-33P]ATP
[16] = tested on: MOLT-4; test: Cytotoxicity against human MOLT4 cells assessed as cell growth at 10 uM after 48 hrs by SRB assay relative to control; type: functional; details: MOLT-4, 48 h, read-out: Activity
[17] = tested on: COLO 205; test: Cytotoxicity against human COLO205 cells assessed as cell growth at 10 uM after 48 hrs by SRB assay relative to control; type: functional; details: COLO 205, 48 h, read-out: Activity
[18] = tested on: HT-29; test: Cytotoxicity against human HT-29 cells assessed as cell growth at 10 uM after 48 hrs by SRB assay relative to control; type: functional; details: HT-29, 48 h, read-out: Activity
[19] = Inhibition of domestic porcine brain full length […] using RRKHAAIGSpAYSITA as substrate in presence of [gamma-33P]ATP; design: species or system Sus scrofa domesticus
[20] = tested on: CCRF-CEM; test: Cytotoxicity against human CCRF-CEM cells assessed as cell growth at 10 uM after 48 hrs by SRB assay relative to control; type: functional; details: read-out: Activity
[21] = tested on: SW-620; test: Cytotoxicity against human SW620 cells assessed as cell growth at 10 uM after 48 hrs by SRB assay relative to control; type: functional; details: SW-620, 48 h, read-out: Activity
[22] = tested on: HL-60(TB); test: Cytotoxicity against human HL-60(TB) cells assessed as cell growth at 10 uM after 48 hrs by SRB assay relative to control; type: functional; details: HL-60, 48 h, read-out: Activity
[23] = tested on: K562; test: Cytotoxicity against human K562 cells assessed as cell growth at 10 uM after 48 hrs by SRB assay relative to control; type: functional; details: K562, 48 h, read-out: Activity
[24] = tested on: SNB-19; test: Cytotoxicity against human SNB19 cells assessed as cell growth at 10 uM after 48 hrs by SRB assay relative to control; type: functional; details: SNB-19, 48 h, read-out: Activity
[25] = tested on: MDA-MB-231; test: Cytotoxicity against human MDA-MB-231 cells assessed as cell growth at 10 uM after 48 hrs by SRB assay relative to control; type: functional; details: MDA-MB-231, 48 h, read-out: Activity
[26] = tested on: Malme-3M; test: Cytotoxicity against human MALME-3M cells assessed as cell growth at 10 uM after 48 hrs by SRB assay relative to control; type: functional; details: read-out: Activity
[27] = tested on: NCI-H23; test: Cytotoxicity against human NCI-H23 cells assessed as cell growth at 10 uM after 48 hrs by SRB assay relative to control; type: functional; details: NCI-H23, 48 h, read-out: Activity
[28] = molecular target: Cyclin-dependent kinase 5/CDK5 activator 1 (Homo sapiens) (UniProt Q00535+Q15078); test: Inhibition of recombinant full length human CDK5/p25 expressed in bacteria assessed as residual activity at 10 uM using histone H1 as substrate in presence of [gamma-33P]ATP
[29] = tested on: SK-MEL-28; test: Cytotoxicity against human SK-MEL-28 cells assessed as cell growth at 10 uM after 48 hrs by SRB assay relative to control; type: functional; details: SK-MEL-28, 48 h, read-out: Activity
[30] = tested on: HOP-62; test: Cytotoxicity against human HOP62 cells assessed as cell growth at 10 uM after 48 hrs by SRB assay relative to control; type: functional; details: HOP-62, 48 h, read-out: Activity
[31] = tested on: Hs-578T; test: Cytotoxicity against human Hs 578T cells assessed as cell growth at 10 uM after 48 hrs by SRB assay relative to control; type: functional; details: read-out: Activity
[32] = tested on: NCI-H226; test: Cytotoxicity against human NCI-H226 cells assessed as cell growth at 10 uM after 48 hrs by SRB assay relative to control; type: functional; details: NCI-H226, 48 h, read-out: Activity
[33] = tested on: SF-539; test: Cytotoxicity against human SF539 cells assessed as cell growth at 10 uM after 48 hrs by SRB assay relative to control; type: functional; details: SF-539, 48 h, read-out: Activity
[34] = tested on: A498; test: Cytotoxicity against human A498 cells assessed as cell growth at 10 uM after 48 hrs by SRB assay relative to control; type: functional; details: A498, 48 h, read-out: Activity

Sequence of Aurora kinase B (Q96GD4 whole entry): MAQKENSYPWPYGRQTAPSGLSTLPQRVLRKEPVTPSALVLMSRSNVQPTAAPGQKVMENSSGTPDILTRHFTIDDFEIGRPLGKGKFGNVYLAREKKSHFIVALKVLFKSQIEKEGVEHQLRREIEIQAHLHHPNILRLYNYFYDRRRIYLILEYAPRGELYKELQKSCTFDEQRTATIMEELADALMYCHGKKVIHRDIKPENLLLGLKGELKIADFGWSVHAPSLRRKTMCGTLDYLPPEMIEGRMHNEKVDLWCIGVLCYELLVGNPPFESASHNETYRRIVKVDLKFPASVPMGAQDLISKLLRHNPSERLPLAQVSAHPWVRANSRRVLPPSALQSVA
Sequence of Cyclin-dependent kinase 5/CDK5 activator 1 (Homo sapiens) (Q00535 whole entry): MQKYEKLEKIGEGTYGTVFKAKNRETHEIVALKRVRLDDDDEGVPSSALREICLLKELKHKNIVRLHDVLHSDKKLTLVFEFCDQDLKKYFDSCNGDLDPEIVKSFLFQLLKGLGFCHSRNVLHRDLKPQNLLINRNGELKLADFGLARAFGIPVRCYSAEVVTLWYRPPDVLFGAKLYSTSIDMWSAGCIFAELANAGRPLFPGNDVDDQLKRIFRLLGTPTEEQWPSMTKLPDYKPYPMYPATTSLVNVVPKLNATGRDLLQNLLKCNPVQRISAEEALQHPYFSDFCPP
Sequence of Cyclin-dependent kinase 5/CDK5 activator 1 (Homo sapiens) (Q15078 99-307 partner limits assumed): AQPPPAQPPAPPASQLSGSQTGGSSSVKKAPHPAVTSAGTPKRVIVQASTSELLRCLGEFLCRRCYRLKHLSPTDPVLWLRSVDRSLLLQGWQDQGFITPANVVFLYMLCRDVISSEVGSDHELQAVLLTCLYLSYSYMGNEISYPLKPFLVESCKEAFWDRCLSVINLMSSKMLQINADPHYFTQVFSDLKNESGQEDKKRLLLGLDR
Sequence of Serine/threonine-protein kinase pim-1 (P11309 whole entry): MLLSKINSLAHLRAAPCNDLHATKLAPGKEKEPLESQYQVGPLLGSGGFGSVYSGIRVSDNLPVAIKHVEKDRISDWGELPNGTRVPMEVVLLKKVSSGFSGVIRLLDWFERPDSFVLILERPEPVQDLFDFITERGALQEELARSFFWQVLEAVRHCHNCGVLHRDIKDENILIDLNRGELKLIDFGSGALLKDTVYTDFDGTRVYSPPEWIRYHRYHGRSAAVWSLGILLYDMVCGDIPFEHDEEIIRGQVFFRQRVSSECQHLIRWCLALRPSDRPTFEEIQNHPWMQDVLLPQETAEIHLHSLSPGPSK

Row | SMILES | growth at 10 µM [1] [%] | growth at 10 µM [2] [%] | IC50 [3] [µM] | growth at 10 µM [4] [%] | growth at 10 µM [6] [%] | growth at 10 µM [7] [%] | growth at 10 µM [8] [%] | growth at 10 µM [10] [%] | Activity [11] [%] | IC50 [12] [µM] | Activity [13] [%] | growth at 10 µM [14] [%] | IC50 [15] [µM] | growth at 10 µM [17] [%] | growth at 10 µM [18] [%] | IC50 [19] [µM] | growth at 10 µM [21] [%] | growth at 10 µM [25] [%] | growth at 10 µM [26] [%] | Activity [28] [%] | further results
1 | Cn1cc(C2=C(c3cn(C)c4ncccc34)C(=O)NC2=O)c2ccccc21 | 13 to 22.7 | 21 to 33.4 | > 10 | 12 | 35 | 12 to 22.6 | 27 to 50.2 | 16 to 41 | 30 | 0.1 | -3 | 10 to 24.2 | 2 | -63 | 2.28 to 5 | > 10 | 12.9 to 20 | 35 to 56.3 | 20.3 to 29 | -1 | growth at 10 µM [5]: 12.9 to 14%; growth at 10 µM [9]: 12%; growth at 10 µM [16]: 8 to 12.6%; growth at 10 µM [20]: 6.61 to 9%; growth at 10 µM [22]: 3.55 to 9%; growth at 10 µM [23]: 16 to 19.9%; growth at 10 µM [24]: 40 to 65%; growth at 10 µM [27]: 30 to 49.3%; growth at 10 µM [29]: 8 to 51.3%; growth at 10 µM [30]: 21 to 40.6%
2 | N#CCCCCCn1cc(C2=C(c3cn(CCCCCC#N)c4ccccc34)C(=O)NC2=O)c2ccccc21 | 48.9 | 69.4 | > 10 | 142 | 82.5 | 72.7 | 107 | 69.5 | 9 | 2.5 | 36 | 67.6 | > 10 | 73.8 | 84.4 | > 10 | 108 | 81.4 | 121 | 46 | growth at 10 µM [5]: 105%; growth at 10 µM [31]: 59.7%; growth at 10 µM [32]: 80.4%; growth at 10 µM [33]: 53.7%; growth at 10 µM [34]: 54.5%; growth at 10 µM [20]: 73.5%; growth at 10 µM [27]: 97.1%; growth at 10 µM [29]: 133%; growth at 10 µM [30]: 118%
3 | Cn1cc(C2=C(c3cn(C)c4ccccc34)C(=O)N(O)C2=O)c2ccccc21 | 86.2 | 99.9 | > 10 | 80.8 | 90.1 | 74.2 | 112 | 72.8 | 81 | > 10 | 83 | 96.4 | > 10 | 104 | 102 | > 10 | 95.9 | 98 | 118 | 82 | growth at 10 µM [5]: 94.9%; growth at 10 µM [9]: 103%; growth at 10 µM [31]: 95.8%; growth at 10 µM [32]: 88.7%; growth at 10 µM [33]: 107%; growth at 10 µM [16]: 101%; growth at 10 µM [34]: 85.8%; growth at 10 µM [22]: 87.1%; growth at 10 µM [23]: 100%; growth at 10 µM [24]: 102%; growth at 10 µM [29]: 107%; growth at 10 µM [30]: 97%
4 | N#CCCCCCn1cc(C2=C(c3cn(CCCCCC#N)c4ccccc34)C(=O)N(O)C2=O)c2ccccc21 | 14 to 39.9 | 21 to 70.8 | > 10 | 25 | 65 to 67 | 23 to 43.8 | 50 to 80.6 | 19 to 30.5 | 38 | > 10 | 78 | 26 to 65.5 | > 10 | 74 to 91.7 | 51 to 92.4 | > 10 | 31 to 62.5 | 31 to 40.3 | 55 | 75 | growth at 10 µM [9]: 51 to 78.7%; growth at 10 µM [31]: 25 to 80%; growth at 10 µM [32]: 44 to 70%; growth at 10 µM [16]: 10 to 49.4%; growth at 10 µM [34]: 16 to 69.2%; growth at 10 µM [20]: 8 to 54.2%; growth at 10 µM [23]: 15 to 33.9%; growth at 10 µM [24]: 27 to 79.5%; growth at 10 µM [27]: 38 to 76.9%; growth at 10 µM [29]: 35 to 83.3%; growth at 10 µM [30]: 45 to 66.5%
5 | O=C1C2=C(C(=O)N1O)c1cn(c3ccccc13)CCCCCCn1cc2c2ccccc21 | 99.6 | 108 | > 10 | 79.6 | 95.7 | 80.3 | 105 | 79.3 | 107 | > 10 | 89 | 104 | > 10 | 110 | 121 | > 10 | 98.6 | 104 | 105 | 91 | growth at 10 µM [5]: 111%; growth at 10 µM [31]: 97.2%; growth at 10 µM [32]: 101%; growth at 10 µM [33]: 95.7%; growth at 10 µM [16]: 110%; growth at 10 µM [34]: 88.3%; growth at 10 µM [20]: 99.4%; growth at 10 µM [22]: 105%; growth at 10 µM [23]: 109%; growth at 10 µM [27]: 99.7%; growth at 10 µM [29]: 108%; growth at 10 µM [30]: 107%
